This is an account of results in US6472418B1, “Non-peptide NK1 receptors antagonists” (Warner-Lambert Company, priority 1998, dated 2002).

T1 sequence (P25103 whole entry): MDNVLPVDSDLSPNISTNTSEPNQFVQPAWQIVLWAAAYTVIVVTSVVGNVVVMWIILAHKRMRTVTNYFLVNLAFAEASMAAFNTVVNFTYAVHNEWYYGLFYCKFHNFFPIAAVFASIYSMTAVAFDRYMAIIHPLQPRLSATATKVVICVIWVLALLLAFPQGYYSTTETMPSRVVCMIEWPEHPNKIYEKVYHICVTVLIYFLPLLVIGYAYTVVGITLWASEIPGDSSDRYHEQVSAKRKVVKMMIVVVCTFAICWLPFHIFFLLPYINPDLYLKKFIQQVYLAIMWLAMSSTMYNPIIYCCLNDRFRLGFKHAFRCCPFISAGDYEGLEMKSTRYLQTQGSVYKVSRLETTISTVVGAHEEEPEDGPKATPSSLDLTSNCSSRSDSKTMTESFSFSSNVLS

The assay has as its target T1, Human NK1 Receptor (Homo sapiens, UniProt P25103).
T1 construct: endogenous in cells; host or cells: Human lymphoma IM9 cells (whole cells)
Kind of assay: In Vitro Human NK1 Receptor Binding Assay ([125I]Bolton-Hunter substance P displacement, IM9 cells). As to conditions: Human lymphoma IM9 cells, [125I]Bolton-Hunter substance P; Table 3, array-synthesis products; read-out: IC50 (nM) hNK1. The gist of the method:
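Test compounds competed with 0.05-0.1 nM [125I]Bolton-Hunter substance P for binding to intact IM9 cells over 50 min at 21° C, pH 7.4 buffer with MnCl2 and peptidase inhibitors. […] [Sar9, Met(O2)11] substance P gave non-specific binding. Bound counts were measured after filtration and fitted iteratively.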
Consider `O=C(NCc1ccc(F)c(F)c1)C(Cc1c[nH]c2ccccc12)NCc1cc2ccccc2o1` (centres unmarked) [Example 268, 2-[(Benzofuran-2-ylmethyl)-amino]-N-(3,4-difluoro-benzyl)-3-(1H-indol-3-yl)-propionamide], for which the IC50 came to 10 nM. With `O=C(NC1CCCCC1O)C(Cc1c[nH]c2ccccc12)NCc1cc2ccccc2o1` (centres unmarked) [Example 270, 2-[(Benzofuran-2-ylmethyl)-amino]-N-(2-hydroxy-cyclohexyl)-3-(1H-indol-3-yl)-propionamide] the figure was more than 10000 nM.

On to `COc1ccc(CCNC(=O)C(Cc2c[nH]c3ccccc23)NCc2cc3ccccc3o2)cc1` (centres unmarked) [Example 271, 2-[(Benzofuran-2-ylmethyl)-amino]-3-(1H-indol-3-yl)-N-[2-(4-methoxy-phenyl)-ethyl]-propionamide], for which the concentration for half-maximal inhibition (IC50) stood at 196 nM. With `O=C(NC1CCC(O)CC1)C(Cc1c[nH]c2ccccc12)NCc1cc2ccccc2o1` (centres unmarked) [Example 273, 2-[(Benzofuran-2-ylmethyl)-amino]-N-(4-hydroxy-cyclohexyl)-3-(1H-indol-3-yl)-propionamide] the figure was more than 10000 nM. The same measure for `O=C(NCCc1ccccc1F)C(Cc1c[nH]c2ccccc12)NCc1cc2ccccc2o1` (centres unmarked) [Example 274, 2-[(Benzofuran-2-ylmethyl)-amino]-N-[2-(2-fluoro-phenyl)-ethyl]-3-(1H-indol-3-yl)-propionamide]: 264 nM; for `O=C(NC1CCCCC1)C(Cc1c[nH]c2ccccc12)NCc1cc2ccccc2o1` (centres unmarked) [Example 276, 2-[(Benzofuran-2-ylmethyl)-amino]-N-cyclohexyl-3-(1H-indol-3-yl)-propionamide]: 655 nM. `O=C(NC(CO)CC1CCCCC1)C(Cc1c[nH]c2ccccc12)NCc1cc2ccccc2o1` (centres unmarked) [Example 277, 2-[(Benzofuran-2-ylmethyl)-amino]-N-(2-cyclohexyl-1-hydroxymethyl-ethyl)-3-(1H-indol-3-yl)-propionamide]: the half-maximal inhibitory concentration (IC50) is 2200 nM. As for `O=C(NCCCc1ccccc1)C(Cc1c[nH]c2ccccc12)NCc1cc2ccccc2o1` (centres unmarked) [Example 278, 2-[(Benzofuran-2-ylmethyl)-amino]-3-(1H-indol-3-yl)-N-(3-phenyl-propyl)-propionamide], the half-maximal inhibitory concentration (IC50) is 2380 nM. The same measure for `O=C(NCc1ccc(Cl)c(Cl)c1)C(Cc1c[nH]c2ccccc12)NCc1cc2ccccc2o1` (centres unmarked) [Example 279, 2-[(Benzofuran-2-ylmethyl)-amino]-N-(3,4-dichloro-benzyl)-3-(1H-indol-3-yl)-propionamide]: 30 nM. The same measure for `O=C(NCCc1c[nH]c2ccccc12)C(Cc1c[nH]c2ccccc12)NCc1cc2ccccc2o1` (centres unmarked) [Example 280, 2-[(Benzofuran-2-ylmethyl)-amino]-3-(1H-indol-3-yl)-N-[2-(1H-indol-3-yl)-ethyl]-propionamide]: 2540 nM; for `O=C(NCCc1ccc([N+](=O)[O-])cc1)C(Cc1c[nH]c2ccccc12)NCc1cc2ccccc2o1` (centres unmarked) [Example 281, 2-[(Benzofuran-2-ylmethyl)-amino]-3-(1H-indol-3-yl)-N-[2-(4-nitro-phenyl)-ethyl]-propionamide]: 51 nM; for `CC(Cc1ccc(Cl)cc1)NC(=O)C(Cc1c[nH]c2ccccc12)NCc1cc2ccccc2o1` (centres unmarked) [Example 282, 2-[(Benzofuran-2-ylmethyl)-amino]-N-[2-(4-chloro-phenyl)-1-methyl-ethyl]-3-(1H-indol-3-yl)-propionamide]: 833 nM. The same measure for `O=C(NCc1ccc(C(F)(F)F)cc1)C(Cc1c[nH]c2ccccc12)NCc1cc2ccccc2o1` (centres unmarked) [Example 283, 2-[(Benzofuran-2-ylmethyl)-amino]-3-(1H-indol-3-yl)-N-(4-trifluoromethyl-benzyl)-propionamide]: 420 nM; for `O=C(NCCc1ccc(F)cc1)C(Cc1c[nH]c2ccccc12)NCc1cc2ccccc2o1` (centres unmarked) [Example 284, 2-[(Benzofuran-2-ylmethyl)-amino]-N-[2-(4-fluoro-phenyl)-ethyl]-3-(1H-indol-3-yl)-propionamide]: 62 nM.
